For orientation: EC50 means the concentration giving half of the maximal effect.

This passage reports EC50 results from patent publication US20250333424A1, “ANTIVIRAL COMPOUNDS” (Gilead Sciences, Inc., priority 2024, published 2025).

The test relates to monocytic THP1 cells infected with HIV VSV-G pseudotyped GFP-NEF reporter virus. Description: cells. The format is cell-based. The settings on record: Human immunodeficiency virus 1, THP-1, 24 h.

With `Cc1cc([C@@H]2C[C@@H]2C#N)cc(C)c1Oc1nc(NC23CC(C#N)(C2)C3)nc2nn(C)cc12` (racemic) [Compound 131, (rac)-3-[[4-[4-[(1R,2S)-2-cyanocyclopropyl]-2,6-dimethyl-phenoxy]-2-methyl-pyrazolo[3,4-d]pyrimidin-6-yl]amino]bicyclo[1.1.1]pentane-1-carbonitrile], the EC50 was found to be 1.47 µM. Turning to `Cc1cc([C@H]2C[C@@H]2C#N)cc(C)c1Oc1nc(NC23CC(C#N)(C2)C3)nc2nn(C)cc12` (racemic) [Compound 132, (rac)-3-((4-(4-((1S,2S)-2-cyanocyclopropyl)-2,6-dimethylphenoxy)-2-methyl-2H-pyrazolo[3,4-d]pyrimidin-6-yl)amino)bicyclo[1.1.1]pentane-1-carbonitrile], the EC50 is 0.267 µM. This EC50 is about 5.5-fold lower than that of the compound before.

Regarding `Cc1cc([C@@H]2C[C@H]2C#N)cc(C)c1Oc1nc(NC23CC(C#N)(C2)C3)nc2nn(C)cc12` (racemic) [Compound 134, (rac)-3-((4-(4-((1R,2R)-2-cyanocyclopropyl)-2,6-dimethylphenoxy)-2-methyl-2H-pyrazolo[3,4-d]pyrimidin-6-yl)amino)bicyclo[1.1.1]pentane-1-carbonitrile], the EC50 came to 0.262 µM. In turn, `Cc1cc(/C=C/C#N)cc(C)c1Oc1nc(NC23CC(C#N)(C2)C3)nc2c1C1OCCCN1C2=O` (racemic) [Compound 278, (E)-3-((4-(4-(2-cyanovinyl)-2,6-dimethylphenoxy)-10-oxo-4b,7,8,10-tetrahydro-6H-pyrimido[5′,4′:3,4]pyrrolo[2,1-b][1,3]oxazin-2-yl)amino)bicyclo[1.1.1]pentane-1-carbonitrile] registered an EC50 of 0.0308 µM.

Compound `Cc1cc(/C=C/C#N)cc(C)c1Oc1nc(NC23CC(C#N)(C2)C3)nc2c1[C@@]1(C)O[C@H]3CC[C@H]3N1C2=O` (relative stereo) [Compound 285, 3-(((4bR,5aS,7aR)-4-(4-((E)-2-cyanovinyl)-2,6-dimethylphenoxy)-4b-methyl-9-oxo-4b,5a,6,7,7a,9-hexahydrocyclobuta[4′,5′]oxazolo[3′,2′:1,5]pyrrolo[3,4-d]pyrimidin-2-yl)amino)bicyclo[1.1.1]pentane-1-carbonitrile] displayed a concentration for a half-maximal effect (EC50) of 0.0925 µM. This EC50 is about 3-fold higher than that of the compound before.

Compound `Cc1cc(/C=C/C#N)cc(C)c1Oc1nc(NC23CC(C#N)(C2)C3)nc2nnn(C(F)F)c12` (single isomer, unassigned) [Compound 11, (E)-3-((7-(4-(2-cyanovinyl)-2,6-dimethylphenoxy)-1-(difluoromethyl)-1H-[1,2,3]triazolo[4,5-d]pyrimidin-5-yl)amino)bicyclo[1.1.1]pentane-1-carbonitrile] registered an EC50 of 0.0277 µM. Turning to `Cc1cc(/C=C/C#N)cc(C)c1Oc1nc(NC23CC(C#N)(C2)C3)nc2nc(C)n(Cc3ccn[nH]3)c12` (single isomer, unassigned) [Compound 18, (E)-3-((7-((1H-pyrazol-5-yl)methyl)-6-(4-(2-cyanovinyl)-2,6-dimethylphenoxy)-8-methyl-7H-purin-2-yl)amino)bicyclo[1.1.1]pentane-1-carbonitrile], the EC50 is 0.024 µM. In turn, `Cc1cc(/C=C/C#N)cc(C)c1Oc1nc(NC23CC(C#N)(C2)C3)nc2c1nc(C)n2Cc1ccn[nH]1` (single isomer, unassigned) [Compound 19, (E)-3-((9-((1H-pyrazol-5-yl)methyl)-6-(4-(2-cyanovinyl)-2,6-dimethylphenoxy)-8-methyl-9H-purin-2-yl)amino)bicyclo[1.1.1]pentane-1-carbonitrile] gave an EC50 of 0.0909 µM.

On to `Cc1cc(/C=C/C#N)cc(C)c1Oc1nc(NC23CC(C#N)(C2)C3)nc2nc(C)n(CC(F)F)c12` (single isomer, unassigned) [Compound 20, (E)-3-((6-(4-(2-cyanovinyl)-2,6-dimethylphenoxy)-7-(2,2-difluoroethyl)-8-methyl-7H-purin-2-yl)amino)bicyclo[1.1.1]pentane-1-carbonitrile], for which the EC50 stood at 0.0255 µM. To `Cc1cc(/C=C/C#N)cc(C)c1Oc1nc(NC23CC(C#N)(C2)C3)nc2c1nc(C)n2CC(F)F` (single isomer, unassigned) [Compound 21, (E)-3-((6-(4-(2-cyanovinyl)-2,6-dimethylphenoxy)-9-(2,2-difluoroethyl)-8-methyl-9H-purin-2-yl)amino)bicyclo[1.1.1]pentane-1-carbonitrile] belongs 0.28 µM; to `Cc1cc(/C=C/C#N)cc(C)c1Oc1nc(NC23CC(C#N)(C2)C3)nc2nn(C(F)F)nc12` (single isomer, unassigned) [Compound 22, (E)-3-((7-(4-(2-cyanovinyl)-2,6-dimethylphenoxy)-2-(difluoromethyl)-2H-[1,2,3]triazolo[4,5-d]pyrimidin-5-yl)amino)bicyclo[1.1.1]pentane-1-carbonitrile], 0.259 µM. Turning to `Cc1cc(/C=C/C#N)cc(C)c1Oc1nc(NC23CC(C#N)(C2)C3)nc2nn(C)c(Cl)c12` (single isomer, unassigned) [Compound 95, (E)-3-((3-chloro-4-(4-(2-cyanovinyl)-2,6-dimethylphenoxy)-1-methyl-11H-pyrazolo[3,4-d]pyrimidin-6-yl)amino)bicyclo[1.1.1]pentane-1-carbonitrile], the half-maximal effective concentration (EC50) was determined as 0.0306 µM.

Take `Cc1cc(/C=C/C#N)cc(C)c1Oc1nc(NC23CC(C#N)(C2)C3)nc2c1c(Cl)nn2C` (single isomer, unassigned) [Compound 96, (E)-3-((3-chloro-4-(4-(2-cyanovinyl)-2,6-dimethylphenoxy)-1-methyl-11H-pyrazolo[3,4-d]pyrimidin-6-yl)amino)bicyclo[1.1.1]pentane-1-carbonitrile]: the response was half-maximal at 0.36 µM (EC50). This EC50 lies about 12-fold higher than the previous one. As to `Cc1cc([C@H]2C[C@@H]2C#N)cc(C)c1Oc1nc(NC23CC(C#N)(C2)C3)nc2nn(C)cc12` (single isomer, unassigned) [Compound 133], the midpoint of the response, the EC50, lay at 0.511 µM. For the compound `Cc1cc(/C=C/C#N)cc(C)c1Oc1nc(NC23CC(C#N)(C2)C3)nc2nc3n(c12)CCCO3` (single isomer, unassigned) [Compound 182, (E)-3-((4-(4-(2-cyanovinyl)-2,6-dimethylphenoxy)-7,8-dihydro-6H-[1,3]oxazino[2,3-f]purin-2-yl)amino)bicyclo[1.1.1]pentane-1-carbonitrile], the EC50 turned out to be 0.0342 µM. As to `Cc1cc(/C=C/C#N)cc(C)c1Oc1nc(NC23CC(C#N)(C2)C3)nc2c1nc1n2CCCO1` (single isomer, unassigned) [Compound 183, (E)-3-((4-(4-(2-cyanovinyl)-2,6-dimethylphenoxy)-8,9-dihydro-7H-[1,3]oxazino[3,2-e]purin-2-yl)amino)bicyclo[1.1.1]pentane-1-carbonitrile], a half-maximal effect (EC50) was put at 0.08 µM. Compound `Cc1cc(/C=C/C#N)cc(C)c1Oc1nc(NC23CC(C#N)(C2)C3)nc2nc3n(c12)C[C@@H](F)CO3` (single isomer, unassigned) [Compound 191] showed a half-maximal effective concentration (EC50) of 0.0518 µM.

In the case of `Cc1cc(/C=C/C#N)cc(C)c1Oc1nc(NC23CC(C#N)(C2)C3)nc2nc3n(c12)C[C@H](F)CO3` (single isomer, unassigned) [Compound 192], a half-maximal response (EC50) required 0.0271 µM. Compared with the last compound, the EC50 is about 1.9-fold lower.

`Cc1cc(/C=C/C#N)cc(C)c1Oc1nc(NC23CC(C#N)(C2)C3)nc2nc3n(c12)C[C@@H](O)CO3` (single isomer, unassigned) [Compound 193]: it took 0.319 µM to reach a half-maximal effect (EC50). For `Cc1cc(/C=C/C#N)cc(C)c1Oc1nc(NC23CC(C#N)(C2)C3)nc2nc3n(c12)C[C@H](O)CO3` (single isomer, unassigned) [Compound 194], the EC50 amounted to 0.0497 µM. This EC50 lies about 6.4-fold lower than the previous one.

Consider `Cc1cc(/C=C/C#N)cc(C)c1Oc1nc(NC23CC(C#N)(C2)C3)nc2c1[C@H]1OC[C@H](F)CN1C2=O` (single isomer, unassigned) [Compound 281], for which it took 0.0742 µM to reach a half-maximal effect (EC50). To `Cc1cc(/C=C/C#N)cc(C)c1Oc1nc(NC23CC(C#N)(C2)C3)nc2c1[C@@H]1OC[C@H](F)CN1C2=O` (single isomer, unassigned) [Compound 282] belongs 0.0501 µM. For `Cc1cc(/C=C/C#N)cc(C)c1Oc1nc(NC23CC(C#N)(C2)C3)nc2c1[C@@]1(C)O[C@@H]3CC[C@@H]3N1C2=O` (single isomer, unassigned) [Compound 283], a half-maximal response (EC50) required 0.0448 µM. Take `Cc1cc(/C=C/C#N)cc(C)c1Oc1nc(NC23CC(C#N)(C2)C3)nc2c1[C@]1(C)O[C@@H]3CC[C@@H]3N1C2=O` (single isomer, unassigned) [Compound 284]: a half-maximal effect (EC50) was put at 0.0349 µM. Take `CO[C@H]1COC2(C)c3c(Oc4c(C)cc(/C=C/C#N)cc4C)nc(NC45CC(C#N)(C4)C5)nc3C(=O)N2C1` (single isomer, unassigned) [Example 235]: the EC50 worked out at 0.0228 µM. `Cc1cc(/C=C/C#N)cc(C)c1Oc1nc(NC23CC(C#N)(C2)C3)nc2c1C1(C)O[C@H](C)CCN1C2=O` (single isomer, unassigned) [Example 242] had an EC50 of 0.0364 µM. Then `Cc1cc(/C=C/C#N)cc(C)c1Oc1nc(NC23CC(C#N)(C2)C3)nc2c1C1(C)OC[C@@H](C)CN1C2=O` (single isomer, unassigned) [Example 243], with 0.219 µM; and `CO[C@@H]1COC2(C)c3c(Oc4c(C)cc(/C=C/C#N)cc4C)nc(NC45CC(C#N)(C4)C5)nc3C(=O)N2C1` (single isomer, unassigned) [Example 244], with 0.111 µM. To `Cc1cc(/C=C/C#N)cc(C)c1Oc1nc(NC23CC(C#N)(C2)C3)nc2c1C1(C)OC[C@H](C)CN1C2=O` (single isomer, unassigned) [Example 245] belongs 0.0223 µM; to `Cc1cc(/C=C/C#N)cc(C)c1Oc1nc(NC23CC(C#N)(C2)C3)nc2c1[C@]1(C)O[C@@H](C)CN1C2=O` (single isomer, unassigned) [Example 248], 0.121 µM; to `Cc1cc(/C=C/C#N)cc(C)c1Oc1nc(NC23CC(C#N)(C2)C3)nc2c1[C@@]1(C)O[C@@H](C)CN1C2=O` (single isomer, unassigned) [Example 249], 0.0757 µM. For `Cc1cc(/C=C/C#N)cc(C)c1Oc1nc(NC23CC(C#N)(C2)C3)nc2c1C1(C)O[C@H](C)CN1C2=O` (single isomer, unassigned) [Example 251], the concentration for a half-maximal effect (EC50) is 0.0732 µM. In the case of `CO[C@H]1COC2c3c(Oc4c(C)cc(/C=C/C#N)cc4C)nc(NC45CC(C#N)(C4)C5)nc3C(=O)N2C1` (single isomer, unassigned) [Example 252], the concentration for a half-maximal effect (EC50) stood at 0.0771 µM.
